Test results from PMC9936145, “Discovery of a cytochrome P450 enzyme catalyzing the formation of spirooxindole alkaloid scaffold” (Frontiers in Plant Science, 2023).

Test system: 3eCIS (MsCYP72056)
Details: 250 µM NADPH; HEPES pH 7.5; 0-300 µM hirsuteine; CPR co-expressed

## C=C[C@H]1CN2CCc3c([nH]c4ccccc34)[C@H]2C[C@@H]1/C(=C\OC)C(=O)OC [hirsuteine]
  Km: 68.3 µM
